Tests used:
[1] = Encapsulation rate of mRNA-loaded lipid nanoparticles (Ribogreen kit); format: physicochemical
Experimental: (§1) Luciferase mRNA was diluted in 10-100 mM citrate buffer at pH 4.0; the lipid components (cationic lipids shown in the present disclosure: DSPC:cholesterol:PEG lipids (DMG-PEG2000)) were dissolved in ethanol at a molar ratio of 50:10:38.5:1.5.
(§2) 3 mL of a mRNA buffer and 1 mL of a lipid solution were loaded into two 5 mL syringes respectively, and the syringes were installed on a microfluidic syringe pump. Chips were connected to the syringes and syringe pump flow rate was set. Clicking the start button of the syringe pump caused injection into the chip at a flow rate ratio of 3:1. Under observation of the color of the product at the exit of the chip, after discarding the first 5 milky white droplets (about 100 μL), the back-end sample was collected into an EP tube. The collected product was placed in a dialysis bag and dialyzed for 6 h (MWCO: 100 KDa) in 10 mM PBS (pH 7.4) intervals. Subsequently, after being concentrated by ultrafiltration to the desired concentration, the lipid nanoparticles were filtered through a 0.22 μm sterile filter and then stored at 4° C.
(§3) Tests were performed to calculate the encapsulation rate of the products according to the instructions of Ribogreen kit. Particle size and polydispersity index (PDI) detection as well as zeta potential analysis was performed on a Malvern Zetasizer nano instrument using standard assays.

[2] = Particle size, PDI and zeta potential of mRNA-loaded lipid nanoparticles (Malvern Zetasizer nano); format: physicochemical
Experimental: as §1, §2, §3

[3] = test system: BALB/c mice; test: In vivo expression of luciferase mRNA delivered by LNP, tail intravenous injection, small animal imaging; settings: Table 3, 5 μg mRNA, female BALB/c mice, DLin-MC3-DMA = 100
Experimental: LUC-mRNA-lipid nanoparticles containing 5 μg mRNA (see SEQ ID NO: 1 in the Patent Application Publication CN114380724A for the corresponding nucleotide sequence of LUC-mRNA) were injected via tail intravenous injection in 6-8 week old female BALB/c mice, prepared as in Example 19. 100 μg of D-Luciferin Potassium Salt was injected via tail intravenous injection into the mice at specific time points and assayed using the PerkinElmer Small Animal Imaging System. Fluc is commonly used in mammalian cell cultures to measure gene expression and cell viability, and it emits biological fluorescent light in the presence of the substrate […]. The basic characteristics of the mRNA used include ARCA cap structure, polyA tail length of 120 nt, and complete substitution of pseudouridine.
The effect of delivering luciferase mRNA using more cationic lipids were validated according to the methods of Example 20 and Example 21.

[4] = test system: BALB/c mice; test: In vivo expression of luciferase mRNA delivered by LNP, lung nebulization; settings: LUC-mRNA LNP, 5 μg mRNA, compared with Lipid M and SM-102
Experimental: LUC-mRNA-lipid nanoparticles containing 5 μg mRNA were administrated via lung nebulization in 6-8 week old BALB/c mice, prepared as in Example 19. 100 μg of D-Luciferin Potassium Salt was injected via tail intravenous injection into the mice at specific time points and assayed using the PerkinElmer Small Animal Imaging System.

[5] = test system: BALB/c mice; test: Novel coronavirus mRNA vaccine delivered by LNP, intramuscular immunization, binding antibody titer by ELISA; settings: mouse, in vivo
[6] = test system: BALB/c mice; test: In vivo EPO protein expression after tail i.v. injection of EPO-mRNA LNP, serum ELISA; settings: 6 hours after tail i.v. injection of 20 μg EPO-mRNA-lipid nanoparticles, female Balb/c mice
Experimental: In the example, the effects of in vivo transfection of erythropoietin (EPO) by various cationic liposomes were compared. Nanoparticles were prepared in the same manner as in Example 20, and the nucleotide sequence corresponding to the EPO mRNA used is given in CN114380724B, SEQ ID NO:2. After preparation, 20 μg of EPO-mRNA-lipid nanoparticles were injected via tail intravenous injection in 6-8 week female Balb/c mice. 6 hours later the mice were subjected to blood sampling from the eye frame. After centrifugation to separate the serum, EPO protein expression was determined using ELISA. The basic characteristics of the mRNA used include ARCA cap structure, polyA tail length of 100-120 nt, and complete substitution of pseudouridine.

[7] = test system: C57BL6 mice; test: Intratumoral injection of luciferase mRNA LNP, fluorescence of tumor and liver; format: in vivo; settings: luciferase mRNA LNP 25 μL/2.5 μg intratumoral, B 16F 10 tumor in C57BL6 mice, imaging after 24 h (FIGS. 6 and 7)
Experimental: Different types of lipid nanoparticles encapsulating luciferase mRNA in were prepared accordance with the preparation of Example 20. Tumors were injected subcutaneously in the right abdomen of 6-8 week female C57BL6 mice at 5×10^5 B 16F 10 cells (from CAS Cell Bank, CSTR:19375.09.3101MOUTCM36)/mouse, and tumor growth was observed and recorded periodically. On the 8th day after tumor inoculation, the length (L, mm) and width (D, mm) of the tumors were measured by using a vernier caliper, and the tumor volume (V) was calculated according to the formula V=(L×D^2)/2. Mice with tumor volume in the range of 80-120 mm^3 were taken and randomly grouped, and intratumorally injected with different types of lipid nanoparticles encapsulating luciferase mRNA at the volume of 25 μL/2.5 μg. Anatomical imaging was performed after 24 h to detect the fluorescence intensity of the mouse liver and tumor (as shown in FIGS. 6 and 7). […] This indicates better in situ tumor expression and lower liver […], which is suitable for encapsulation and delivery of some tumor therapy-related nucleic acid drugs.

[8] = Particle size, PDI and zeta potential of mRNA-loaded lipid nanoparticles (Malvern Zetasizer nano); format: physicochemical; remark: listed apart in the source
[9] = Table 1, Luciferase mRNA LNP, cationic lipid:DSPC:cholesterol:DMG-PEG2000 50:10:38.5:1.5 molar
[10] = Table 3 batch, luciferase mRNA LNP prepared as Example 20
[11] = Table 2 No. 1, Luc mRNA LNP, Compound 35/DMG-PEG2000/DSPC/cholesterol 55/2.5/22/20.5 molar, N/P 5
[12] = Table 2 No. 2, Luc mRNA LNP, Compound 35/DMG-PEG2000/DSPC/cholesterol 45/1.5/22/31.5 molar, N/P 10
[13] = Table 2 No. 3, Luc mRNA LNP, Compound 35/DMG-PEG2000/DSPC/cholesterol 45/2.5/8/44.5 molar, N/P 5
[14] = Table 2 No. 4, Luc mRNA LNP, Compound 35/DMG-PEG2000/DSPC/cholesterol 45/1.5/8/45.5 molar, N/P 10
[15] = Table 2 No. 5, Luc mRNA LNP, Compound 35/DMG-PEG2000/DSPC/cholesterol 50/1.5/15/33.5 molar, N/P 7.5
[16] = Table 2 No. 6, Luc mRNA LNP, Compound 35/DMG-PEG2000/DSPC/cholesterol 55/1.5/15/28.5 molar, N/P 10
[17] = Table 2 No. 7, Luc mRNA LNP, Compound 35/DMG-PEG2000/DOPE/cholesterol 55/2.5/22/20.5 molar, N/P 5
[18] = Table 2 No. 8, Luc mRNA LNP, Compound 35/DMG-PEG2000/DOPE/cholesterol 45/1.5/22/31.5 molar, N/P 10
[19] = Table 2 No. 9, Luc mRNA LNP, Compound 35/DMG-PEG2000/DOPE/cholesterol 45/2.5/8/44.5 molar, N/P 5
[20] = Table 2 No. 10, Luc mRNA LNP, Compound 35/DMG-PEG2000/DOPE/cholesterol 45/1.5/8/45.5 molar, N/P 10
[21] = Table 2 No. 11, Luc mRNA LNP, Compound 35/DMG-PEG2000/DOPE/cholesterol 50/1.5/15/33.5 molar, N/P 7.5
[22] = Table 2 No. 12, Luc mRNA LNP, Compound 35/DMG-PEG2000/DOPE/cholesterol 55/1.5/15/28.5 molar, N/P 10
[23] = Table 4 batch, EPO mRNA LNP prepared as Example 20

## CCCCCCCCSCC(C)C(=O)OCCCCCN(CCO)CCCCCCCC(=O)OC(CCCCCCCC)CCCCCCCC (stereo not drawn) [Compound 35]
[1]; [9]
  Encapsulation rate (%): 90.4%
[1]; [10]
  Encapsulation rate (%): 96.2%
[2]; [9]
  PDI: 0.11
  Particle size (nm): 104.5 nm
  Zeta potential (mV): −2.10 mV
[2]; [10]
  PDI: 0.14
  Particle size (nm): 80.4 nm
[3]
  relative fluorescence intensity (%): 962 ± 78%
[4]
  fluorescent levels of mRNA expression (FIG. 2): superior to Lipid M and SM-102
[5]
  binding antibody titer: 1.4 million
[6]
  EPO concentration: 5.73e+07 pg/mL
[7]
  brightness (fluorescence intensity) at the tumor: higher brightness at the tumor
  brightness (fluorescence intensity) in the liver: lower brightness in the liver
[8]; [11]
  PDI: 0.193
  Particle size (nm): 100.5 nm
[8]; [12]
  PDI: 0.121
  Particle size (nm): 98.13 nm
[8]; [13]
  PDI: 0.138
  Particle size (nm): 70.02 nm
[8]; [14]
  PDI: 0.121
  Particle size (nm): 98.19 nm
[8]; [15]
  PDI: 0.051
  Particle size (nm): 85.09 nm
[8]; [16]
  PDI: 0.122
  Particle size (nm): 93.83 nm
[8]; [17]
  PDI: 0.169
  Particle size (nm): 145.0 nm
[8]; [18]
  PDI: 0.205
  Particle size (nm): 114.9 nm
[8]; [19]
  PDI: 0.173
  Particle size (nm): 92.41 nm
[8]; [20]
  PDI: 0.233
  Particle size (nm): 113.7 nm
[8]; [21]
  PDI: 0.155
  Particle size (nm): 140.2 nm
[8]; [22]
  PDI: 0.190
  Particle size (nm): 129.1 nm
[8]; [23]
  PDI: 0.12
  Particle size (nm): 79.1 nm

From US12325676B2, “Cationic lipid compound and composition for delivery of nucleic acids and use thereof” (Shenzhen Rhegen Biotechnology Co., Ltd., priority 2022, dated 2025)
